Results on 16 compounds are retold here after patent US8772504B2, “Substituted benzoxazole, benzimidazole, oxazolopyridine and imidazopyridine derivatives as gamma secretase modulators” (Janssen Pharmaceuticals, Inc., priority 2009, dated 2014).

Where only a bound is given, the exact number is not on record here.

Test [1] deals with Aβ42. Kind of test: Screening for γ-secretase-modulating activity, Method 1: Aβ42 sandwich ELISA on SKNBE2 cell media. As to conditions: SKNBE2 cells carrying APP 695 wild type. The class given is cell-based. As for the experimental part:
(§1) Screening was carried out using SKNBE2 cells carrying the APP 695—wild type, grown in Dulbecco's Modified Eagle's Medium/Nutrient mixture F-12 (DMEM/NUT-mix F-12) (HAM) provided by Gibco (cat no. 31330-38) containing 5% Serum/Fe supplemented with 1% non-essential amino acids. Cells were grown to near confluency.
(§2) The screening was performed using the assay as described in Citron et al (1997) Nature Medicine 3: 67. Briefly, cells were plated in a 96-well plate at about 10^5 cells/ml one day prior to addition of compounds. Compounds were added to the cells in Ultraculture (Lonza, BE12-725F) supplemented with 1% glutamine (Invitrogen, 25030-024) for 18 hours. The media were assayed by two sandwich ELISAs, for Aβ42 and Aβtotal. Toxicity of the compounds was assayed by WST-1 cell proliferation reagent (Roche, 1 644 807) according to the manufacturer's protocol.
To quantify the amount of Aβ42 in the cell supernatant, commercially available Enzyme-Linked-Immunosorbent-Assay (ELISA) kits were used (Innotest® β-Amyloid(1-42), Innogenetics N.V., Ghent, Belgium). The Aβ42 ELISA was performed essentially according to the manufacturer's protocol. Briefly, the standards (dilutions of synthetic Aβ1-42) were prepared in polypropylene Eppendorf with final concentrations of 8000 down to 3.9 pg/ml (1/2 dilution step). Samples, standards and blanks (100 μl) were added to the anti-Aβ42-coated plate supplied with the kit (the capture antibody selectively recognizes the C-terminal end of the antigen). The plate was allowed to incubate 3 h at 25° C. in order to allow formation of the antibody-amyloid complex. Following this incubation and subsequent wash steps a selective anti-Aβ-antibody conjugate (biotinylated 3D6) was added and incubated for a minimum of 1 hour in order to allow formation of the antibody-Amyloid-antibody-complex. After incubation and appropriate wash steps, a Streptavidine-Peroxidase-Conjugate was added, followed 30 minutes later by an addition of 3,3′,5,5′-tetramethylbenzidine (TMB)/peroxide mixture, resulting in the conversion of the substrate into a coloured product. This reaction was stopped by the addition of sulfuric acid (0.9 N) and the colour intensity was measured by means of photometry with an ELISA-reader with a 450 nm filter.
(§3) To obtain the values reported in Table 3a, the sigmoidal dose response curves were analysed by computerised curve-fitting, with percent of inhibition plotted against compound concentration. A 4-parameter equation (model 205) in XLfit was used to determine the IC50. The top and the bottom of the curve were fixed to 100 and 0, respectively, and the hill slope was fixed to 1. The IC50 represents the concentration of a compound that is required for inhibiting a biological effect by 50% (Here, it is the concentration where Aβ peptide level is reduced by 50%).
(§4) To obtain the values reported in Table 3b, the data were calculated as percentage of the maximum amount of amyloid Beta 42 measured in the absence of the test compound. The sigmoidal dose response curves were analyzed using non-linear regression analysis with percentage of the control plotted against the log concentration of the compound. A 4-parameter equation was used to determine the IC50. The values reported in Table 3b are averaged IC50 values.
For orientation: An ELISA detects its analyte on a solid surface through an enzyme-linked reagent.

In test [2] the test system is Aβtotal. Kind of test: Screening for γ-secretase-modulating activity, Method 1: Aβtotal sandwich ELISA on SKNBE2 cell media. The class given is cell-based. The note with it: SKNBE2 cells carrying APP 695 wild type. As for the experimental part: as §1, §2
To quantify the amount of Aβtotal in the cell supernatant, samples and standards were added to a 6E10-coated plate. The plate was allowed to incubate overnight at 4° C. in order to allow formation of the antibody-amyloid complex. Following this incubation and subsequent wash steps a selective anti-Aβ-antibody conjugate (biotinylated 4G8) was added and incubated for a minimum of 1 hour in order to allow formation of the antibody-Amyloid-antibody-complex. After incubation and appropriate wash steps, a Streptavidine-Peroxidase-Conjugate was added, followed 30 minutes later by an addition of Quanta Blu fluorogenic peroxidase substrate according to the manufacturer's instructions (Pierce Corp., Rockford, Ill.).
as §3, §4

[3] abbreviates: Homo sapiens, Table 3a, 18 hours, XLfit, top/bottom fixed to 100 and 0, hill slope 1.
Setting [4] is: Homo sapiens, Table 3b, non-linear regression of % of control, averaged IC50 values.
Setting [5] is: Table 3a, 18 hours, XLfit, top/bottom fixed to 100 and 0, hill slope 1.
Setting [6] is: Table 3b, non-linear regression of % of control, averaged IC50 values.

The IC50 is the concentration needed to halve the response being measured. Higher therefore signals lower potency. For `COc1cc(Nc2cccc3c2nc(CC2CCN(C(C)=O)CC2)n3C)ccc1-n1cnc(C)c1` [Compound 10], the 50% inhibitory concentration (IC50) in test [1] (setting [3]) was 751 nM; in test [1] (setting [4]), 575 nM; in test [2] (setting [3]), > 30000 nM; in test [2] (setting [4]), 29500 nM.

For `COc1cc(Nc2cccc3c2nc(CC2CCN(C)CC2)n3C)ccc1-n1cnc(C)c1` [Compound 11], the IC50 in test [1] (setting [3]) was found to be 1590 nM; in test [1] (setting [4]) it was 1260 nM; in test [2] (setting [3]), 12000 nM; in test [2] (setting [4]) it was 16600 nM.

Take `Cc1ncnn1-c1ccc(Nc2nccc3c2nc(-c2ccc(F)cc2)n3C(C)C)cc1F` [Compound 13]: the 50% inhibitory concentration (IC50) in test [1] (setting [3]) was 603 nM; in test [1] (setting [4]), 603 nM; in test [2] (setting [3]), > 10000 nM; in test [2] (setting [4]) it was > 10000 nM.

Regarding `Cc1ncn(-c2ccc(Nc3cc(C(F)(F)F)cc4c3nc(-c3ccc(F)cc3)n4C)cn2)n1` [Compound 14], the half-maximal inhibitory concentration (IC50) in test [1] (setting [3]) was 132 nM; in test [1] (setting [4]), 132 nM; in test [2] (setting [3]), > 10000 nM; in test [2] (setting [4]) it was > 10000 nM.

In the case of `COc1cc(Nc2cccc3oc(-c4ccccc4Cl)nc23)ccc1-n1cnc(C)c1` [Compound 16], the half-maximal inhibitory concentration (IC50) was 267 nM in test [1] (setting [3]), 257 nM in test [1] (setting [4]), > 10000 nM in test [2] (setting [3]) and > 10000 nM in test [2] (setting [4]).

As for `COc1cc(Nc2cccc3oc(C4CCCCC4)nc23)ccc1-n1cnc(C)c1` [Compound 17], the half-maximal inhibitory concentration (IC50) in test [1] (setting [3]) was 178 nM; in test [1] (setting [4]), 174 nM; in test [2] (setting [3]), > 3000 nM; in test [2] (setting [4]) it was > 3000 nM.

For `COc1cc(Nc2cccc3c2nc(C)n3C)ccc1-n1cnc(C)c1` [Compound 19], the IC50 in test [1] (setting [5]) was 1660 nM; in test [1] (setting [6]), 1660 nM; in test [2] (setting [5]), > 10000 nM; in test [2] (setting [6]), > 10000 nM.

On to `COc1cc(Nc2cccc3c2nc(C)n3C(C)C)ccc1-n1cnc(C)n1` [Compound 21], for which the IC50 was 905 nM in test [1] (setting [5]), 891 nM in test [1] (setting [6]), > 33000 nM in test [2] (setting [5]) and 45700 nM in test [2] (setting [6]).

Regarding `CCCCc1nc2c(Nc3ccc(-n4cnc(C)n4)c(F)c3)cccc2n1C` [Compound 24], the 50% inhibitory concentration (IC50) is 505 nM in test [1] (setting [5]), 380 nM in test [1] (setting [6]), 18000 nM in test [2] (setting [5]) and 17800 nM in test [2] (setting [6]).

Regarding `COc1cc(Nc2cccc3c2nc(CC(C)C)n3C)ccc1-n1cnc(C)c1` [Compound 25], the IC50 in test [1] (setting [5]) was 19 nM; in test [1] (setting [6]), 19 nM; in test [2] (setting [5]), > 3000 nM; in test [2] (setting [6]), > 3000 nM.

`Cc1ncn(-c2ccc(Nc3cccc4c3nc(CC(C)C)n4CC(C)C)cc2)n1` [Compound 26]: the IC50 is 517 nM in test [1] (setting [5]), 708 nM in test [1] (setting [6]), > 10000 nM in test [2] (setting [5]) and > 10000 nM in test [2] (setting [6]).

Regarding `COCCn1c(CC(C)C)nc2c(Nc3ccc(-n4cnc(C)n4)cc3)cccc21` [Compound 27], the IC50 in test [1] (setting [5]) is 1250 nM; in test [1] (setting [6]) it was 1120 nM; in test [2] (setting [5]), > 10000 nM; in test [2] (setting [6]), 17400 nM.

Take `COc1cc(Nc2cccc3oc(CC(C)C)nc23)ccc1-n1cnc(C)n1` [Compound 28]: the IC50 in test [1] (setting [5]) is 1350 nM; in test [1] (setting [6]) it was 1350 nM; in test [2] (setting [5]), > 3000 nM; in test [2] (setting [6]) it was > 3000 nM.

As for `COc1cc(Nc2cccc3c2nc(C(C)(C)C)n3C)ccc1-n1cnc(C)c1` [Compound 29], the IC50 in test [1] (setting [5]) is 1090 nM; in test [1] (setting [6]) it was 437 nM; in test [2] (setting [5]), > 10000 nM; in test [2] (setting [6]) it was > 10000 nM.

As for `COc1cc(Nc2cccc3oc(C(C)(C)C)nc23)ccc1-n1cnc(C)c1` [Compound 30], the concentration for half-maximal inhibition (IC50) is 790 nM in test [1] (setting [5]), 794 nM in test [1] (setting [6]), > 3000 nM in test [2] (setting [5]) and > 3000 nM in test [2] (setting [6]).

`COc1cc(Nc2cccc3c2nc(OC(C)C)n3C)ccc1-n1cnc(C)c1` [Compound 31]: the IC50 in test [1] (setting [5]) is 550 nM; in test [1] (setting [6]), 501 nM; in test [2] (setting [5]) it was 29700 nM; in test [2] (setting [6]), > 30000 nM.
